The assay addresses T1, Human ENaC δ, β and γ subunit (Homo sapiens, UniProt P51168+P51170+P51172).
T1 construct: expressed in transfected cells; host or cells: Xenopus laevis (African clawed frog) oocytes injected with cRNA
T1 sequence (P51172 1-802): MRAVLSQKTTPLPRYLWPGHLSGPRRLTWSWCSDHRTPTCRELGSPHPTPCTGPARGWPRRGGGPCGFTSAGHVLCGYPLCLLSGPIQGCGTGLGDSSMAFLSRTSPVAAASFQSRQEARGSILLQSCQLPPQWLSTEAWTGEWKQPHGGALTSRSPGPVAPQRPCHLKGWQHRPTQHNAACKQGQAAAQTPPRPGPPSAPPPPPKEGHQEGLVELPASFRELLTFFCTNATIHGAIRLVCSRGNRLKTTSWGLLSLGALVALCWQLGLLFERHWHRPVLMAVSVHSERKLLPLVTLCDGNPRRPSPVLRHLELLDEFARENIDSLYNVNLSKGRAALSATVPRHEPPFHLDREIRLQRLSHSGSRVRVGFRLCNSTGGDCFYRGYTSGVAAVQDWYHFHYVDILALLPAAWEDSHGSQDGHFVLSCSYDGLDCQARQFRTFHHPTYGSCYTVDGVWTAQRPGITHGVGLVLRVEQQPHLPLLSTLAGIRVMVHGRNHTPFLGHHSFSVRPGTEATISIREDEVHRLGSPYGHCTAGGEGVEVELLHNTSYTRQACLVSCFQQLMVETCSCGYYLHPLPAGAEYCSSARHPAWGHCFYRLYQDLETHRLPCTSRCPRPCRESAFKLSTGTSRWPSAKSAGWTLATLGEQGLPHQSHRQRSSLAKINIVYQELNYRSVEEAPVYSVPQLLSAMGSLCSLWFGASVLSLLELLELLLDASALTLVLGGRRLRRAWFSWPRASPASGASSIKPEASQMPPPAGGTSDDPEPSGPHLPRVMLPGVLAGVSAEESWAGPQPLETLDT
T1 sequence (P51168 1-640): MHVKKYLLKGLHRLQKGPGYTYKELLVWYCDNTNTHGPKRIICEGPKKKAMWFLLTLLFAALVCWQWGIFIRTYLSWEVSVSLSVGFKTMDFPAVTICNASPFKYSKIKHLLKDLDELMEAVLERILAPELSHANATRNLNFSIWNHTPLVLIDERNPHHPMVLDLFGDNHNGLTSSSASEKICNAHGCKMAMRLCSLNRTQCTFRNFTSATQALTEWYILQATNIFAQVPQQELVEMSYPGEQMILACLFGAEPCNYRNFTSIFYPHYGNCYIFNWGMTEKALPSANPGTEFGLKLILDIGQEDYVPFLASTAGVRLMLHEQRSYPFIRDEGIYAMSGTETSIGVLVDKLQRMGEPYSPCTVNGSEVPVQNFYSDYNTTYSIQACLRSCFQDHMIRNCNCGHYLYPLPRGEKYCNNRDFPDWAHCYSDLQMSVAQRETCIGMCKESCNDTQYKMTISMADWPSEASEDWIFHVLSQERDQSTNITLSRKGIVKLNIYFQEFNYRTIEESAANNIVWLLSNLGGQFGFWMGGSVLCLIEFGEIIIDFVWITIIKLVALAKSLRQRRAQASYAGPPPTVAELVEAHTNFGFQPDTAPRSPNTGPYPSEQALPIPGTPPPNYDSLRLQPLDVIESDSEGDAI
T1 sequence (P51170 1-649): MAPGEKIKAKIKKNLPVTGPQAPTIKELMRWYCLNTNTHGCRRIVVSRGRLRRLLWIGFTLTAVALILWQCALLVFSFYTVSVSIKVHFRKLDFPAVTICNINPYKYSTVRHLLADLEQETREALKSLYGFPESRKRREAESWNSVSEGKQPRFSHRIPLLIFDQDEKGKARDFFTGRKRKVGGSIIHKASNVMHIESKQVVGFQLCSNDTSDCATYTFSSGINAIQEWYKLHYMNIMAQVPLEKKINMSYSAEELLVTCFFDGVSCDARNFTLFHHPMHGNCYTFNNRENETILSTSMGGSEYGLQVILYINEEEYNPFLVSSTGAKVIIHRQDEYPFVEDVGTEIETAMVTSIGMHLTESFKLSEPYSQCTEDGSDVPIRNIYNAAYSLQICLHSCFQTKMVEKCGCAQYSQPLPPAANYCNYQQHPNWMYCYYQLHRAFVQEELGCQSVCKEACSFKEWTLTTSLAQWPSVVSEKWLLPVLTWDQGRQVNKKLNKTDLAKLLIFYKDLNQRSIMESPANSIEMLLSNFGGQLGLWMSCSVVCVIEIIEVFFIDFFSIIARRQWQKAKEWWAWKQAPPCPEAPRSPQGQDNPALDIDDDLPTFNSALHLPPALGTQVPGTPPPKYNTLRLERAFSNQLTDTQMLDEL
Description: Measurement of ENaC activation potency (MED) in ENaC-expressing oocyte, Two Electrode Voltage Clamp. The assay is classed as cell-based. Conditions: minimum effective dose at which current started to increase; ENaC-expressing African clawed frog oocyte; smaller MED = higher ENaC activation potency. Here is the method: ENaC activation current value, namely, the inward current in ENaC-expressing oocyte was measured as follows.
According to the method described in Motonao Nakamura, Takao Shimizu: Experiment of African clawed frog oocyte, Experimental Medicine Vol. 11, No. 3, 224-232 (1993), oocyte was collected from African clawed frog, […], and the current value was measured by a Two Electrode Voltage Clamp technique. In the present invention, ND96 (96 mM NaCl, 2 mM KCl, 1 mM MgCl2, 5 mM Hepes, 1.8 mM CaCl2, pH 7.6) was used instead of MBS buffer in the above-mentioned document. Injector NANOLITER 2000 manufactured by World Precision Instruments was used for microinjection, OpusXpress 6000A manufactured by Molecular Devices was used for current value measurement by a Two Electrode Voltage Clamp technique, and Clampfit 10.2 software manufactured by Molecular Devices was used for data analysis.
Human ENaC δ, β and γ subunit genes shown by SEQ ID NOs: 1, 2 and 3, respectively, in the Sequence Listing were each cloned into a plasmid vector, and used as a template DNA for cRNA synthesis. cRNA was synthesized using MEGAscript kit manufactured by Ambion and according to the method of the manual of the manufacturer.
A mixture of the same amount of ENaC […] cRNA (0.4 to 0.8 μg/μL), and β and γ subunits cRNA (0.4 μg/μL) was injected into the oocyte of African clawed frog at […] per oocyte, and the oocyte was cultured for 16 hr-72 hr. Thereafter, the oocyte was set on a measuring apparatus OpusXpress 6000A, the electrodes were inserted into the oocyte, the voltage was clamped at a level lower by −30 mV than the resting membrane potential by a Two Electrode Voltage Clamp technique, and the current value was measured.
To measure the ENaC activation potency, oocyte was stimulated with each test compound, and the minimum effective dose (hereinafter to be abbreviated as MED) of the compound at the time point when the electric current started to increase was measured. In this case, whichever smaller value of the minimum effective dose of the stimulation compound that increased the current value by not less than 10%, and the minimum effective concentration of the compound that increased, by not less than 25%, the electric current increase value due to the stimulation by 5 μM capsazepine (CAS NO.: 138977-28-3), as compared to the current value before addition of the compound and without stimulation, was taken as MED. A smaller MED means higher ENaC activation potency.
Each test compound was directly dissolved in ND96, or first dissolved in dimethyl sulfoxide (DMSO) to 100 mM, and then prepared by diluting the solution with ND96 to a concentration used for the evaluation. The concentration of the test compound in ND96 was prepared to various concentrations within the range of 0.1 nM to 300 μm.
ND96 as a perfusion fluid was flown at a rate of 0.5 mL/min through the measuring apparatus OpusXpress 6000A on which ENaC-expressing oocyte was set, the perfusion fluid was temporarily stopped every 3 minutes to add a test compound solution (0.25 mL) dissolved in ND96 at a rate of 0.5 mL/min. In this way, the test compound was contacted with ENaC-expressing oocyte, and whether ENaC is activated by the compound was examined by measuring the current value. After addition of the test compound, feeding of the perfusion fluid was resumed to wash away the compound to be ready for the next addition of the compound.
The compound was added successively from a low concentration to a high concentration to stimulate ENaC-expressing oocyte. The concentrations actually added was, for example, 1 nM, 3 nM, 10 nM, 30 nM, 100 nM, 300 nM; 1 μM, 3 μM, 10 μm, 30 μm, 100 μm, 300 μm; 1.2 μM, 6 μM, 30 μm, 150 μm of one test compound. The compound was added from low concentrations to high concentrations at 3 min intervals. […]
In turn, `S=C(NCCc1ccccc1)NCc1ccco1` [Example 21] came in with an MED of 1 µM.

On to `Oc1cccc(CNC(=S)NCCc2ccccc2)c1` [Example 44], for which the MED was 1 µM.

On to `C[C@@H](NC(=S)NCC(O)c1cc(O)ccc1O)c1cccc(O)c1` (some centres unmarked) [Example 112], for which the MED came to 0.1 µM.

In turn, `Oc1cc2c(cc1O)CN(C(=S)NCCc1ccccc1)CC2` [Example 41, N-(2-phenylethyl)-3,4-dihydro-6,7-dihydroxyisoquinoline-2(1H)-carbothioamide] yielded an MED of 3 µM.

Consider `S=C(NCCC1CCCCC1)NCc1ccccc1` [Example 70], for which the MED was determined as 10 µM.

In turn, `CS(=O)(=O)Nc1cccc(CNC(=S)NCCc2ccccc2)c1` [Example 86, 1-[3-(mesylamino)benzyl]-3-(2-phenylethyl)thiourea] had an MED of 1 µM.

In the case of `O=C(O)[C@@H](NC(=S)NCCc1ccccc1O)c1ccccc1` [Example 102, (S)-2-{3-[2-(2-hydroxyphenyl)ethyl]thioureido}-2-phenylacetic acid], the MED was 1 µM.

With `C[C@@H](NC(=S)NCCc1ccccc1C(=O)O)c1cccc(O)c1` [Example 125, 2-(2-{3-[(R)-1-(3-hydroxyphenyl)ethyl]thioureido}ethyl)benzoic acid], the MED was in the range of 0.06 to 0.1 µM.

The molecule `ON(Cc1ccccc1)C(=S)NCCc1ccccc1` [Example 69] registered an MED of 1 µM.

Take `S=C(NCCc1ccccc1)NCc1cccc2ccccc12` [Example 20]: the MED came to 3 µM.

`CC(C)CN(Cc1ccc(O)c(O)c1)C(=S)NCCc1ccccc1` [Example 48] returned an MED of 1 µM.

Molecule `COC(=O)c1cc(O)ccc1NC(=S)N(C)CCc1ccccc1` [Example 119] gave an MED of 3 µM.

For `OC[C@@H](Cc1ccccc1)NC(=S)NCc1ccccc1` [Example 52], the MED was 1 µM.

As to `O=C1C(c2ccccc2)NC(=S)N1CCc1ccccc1` (centres unmarked) [Example 49], the MED stood at 30 µM.

In turn, `O=C(O)[C@@H](NC(=S)NCCc1ccccc1)c1ccccc1` [Example 101] registered an MED of 1 µM.

The molecule `FC(F)(F)c1ccc(CNC(=S)NCCc2ccccc2)cc1` [Example 30] displayed an MED of 30 µM.

`C[C@@H](NC(=S)N[C@H](C)c1ccccc1)c1ccccc1` [Example 25] registered an MED of 10 µM.

Turning to `C[C@@H](NC(=S)NNCc1ccccc1O)c1ccccc1` [Example 90], the MED worked out at 1 µM.

Take `S=C(NCCc1ccc(Cl)cc1)NCCc1c[nH]c2ccccc12` [Example 6]: the MED stood at 30 µM.

In turn, `C[C@@H](NC(=S)N[C@H](Cc1ccccc1)C(=O)O)c1cccc(O)c1` [Example 107] yielded an MED of 0.3 µM.

`C[C@@H](NC(=S)N/N=C/c1c(O)cccc1O)c1ccccc1` [Example 94] had an MED of 3 to 10 µM.

Molecule `S=C(NCCc1ccccc1Br)NCc1ccccc1` [Example 74] gave an MED of 3 to 10 µM.

Regarding `OCCNC(=S)NCc1ccccc1` [Example 15], the MED came to 30 µM.

In turn, `S=C(NCCCc1ccccc1)NCc1ccccc1` [Example 18] yielded an MED of 10 µM.

Take `C[C@@H](NC(=S)N/N=C/c1ccccc1O)c1ccccc1` [Example 35]: the MED came to 3 µM.

As for `Oc1ccccc1CCNC(=S)N[C@@H]1CCc2ccccc21` [Example 88], the MED fell in the range of 0.6 to 1 µM.

`C[C@@H](NC(=S)NCC(O)c1ccccc1O)c1cccc(O)c1` (stereo partly drawn) [Example 105, 1-[2-(2-hydroxyphenyl)-2-hydroxyethyl]-3-[(R)-1-(3-hydroxyphenyl)ethyl]thiourea] showed an MED of 0.06 to 0.1 µM.

As for `CC(C)(C)OC(=O)NCC(=O)Nc1cccc(CNC(=S)NCCc2ccccc2)c1` [Example 82, tert-butyl (3-{[3-(2-phenylethyl)thioureido]methyl}phenylcarbamoyl)methylcarbamate], the MED is 3 µM.

Consider `NC(=O)CNC(=S)NCc1ccccc1` [Example 53], for which the MED is 30 µM.

For the molecule `C[C@H](NC(=S)NCCc1ccccc1)c1ccccc1` [Example 12], the MED worked out at 10 µM.

For `CN(Cc1ccc(O)c(O)c1)C(=S)NCCc1ccccc1` [Example 42, 1-(3,4-dihydroxybenzyl)-1-methyl-3-(2-phenylethyl)thiourea], the MED was 1 µM.

For the molecule `COC(CNC(=S)NCc1ccccc1)c1ccccc1` (centres unmarked) [Example 77], the MED is 1 µM.

The values above are taken from patent US20140004243A1, “SALTY TASTE ENHANCER” (AJINOMOTO CO., INC., priority 2011, published 2014).
